The values below come from patent publication US6620837B1, “Antithrombotic agents” (Eli Lilly and Company, priority 1999, dated 2003).

The structures appear in SMILES notation. Where a name gives a salt, the structure may show the parent alone.

Data set [1] can be described thus: Volume of distribution (VD) after oral dosing, pharmacokinetic model. The class given is in vivo, dog. The conditions noted are these: VD=Clearance/K; Clearance=Dose/AUC following oral dosing; compounds of the invention. The source says: Many of the antithrombotic compounds disclosed in the prior art are lipophilic and, therefore, undergo high volumes of distribution from the plasma component and into the tissues. Since thrombin resides in the plasma, this tissue distribution is not preferred. […] Data in Table 1 below confirms that the compounds of the present invention have lower volumes of distribution and, therefore, better pharmacokinetic properties than their corresponding compounds of formula I in which R^d is hydrogen.
The Volume of Distribution (VD) was calculated according to the standard equation:
where Clearance=Dose (ug)/AUC (ug/ml) where AUC is the amount of drug present in plasma following oral dosing and is measured as the area under a curve of drug concentration versus time. K(h^−1) is the elimination rate constant.
Test compound is formulated immediately prior to dosing by dissolving in sterile 0.9 percent saline to a 5 mg/mL preparation. Dogs are given a single 2 mg/kg dose of test compound by oral gavage. Blood samples (4.5 mL) are taken from the cephalic vein at 0.25, 0.5, 0.75, 1, 2, 3, 4 and 6 hours after dosing. Samples are collected in citrated Vacutainer tubes and kept on ice prior to reduction to plasma by centrifugation. Plasma samples are analyzed by HPLC MS. Plasma concentration of test compound is recorded and used to calculate the pharmacokinetic parameters: elimination rate constant, Ke; total clearance, Clt; volume of distribution, VD; time of maximum plasma test compound concentration, Tmax; maximum concentration of test compound of Tmax, Cmax; plasma half-life, t0.5; and area under the curve, A.U.C.; fraction of test compound absorbed, F.

Regarding `O=C([O-])c1cc(-c2sc3ccccc3c2Cc2ccc(OCCN3CCCC3)cc2)ccc1OCCN1CCCC1.[Na+]` [Example 1, 2-[2-(1-Pyrrolidinyl)ethoxy]-5-[3-[4-[2-(1-pyrrolidinyl)ethoxy]benzyl]benzo[b]thiophen-2-yl]benzoic Acid Sodium Salt], the melting point was 253 to 255 °C (dec.). Also, the “VD” value in data set [1] is given as 1.27 L/kg. For `O=C([O-])CCCOc1ccc(-c2sc3ccccc3c2Cc2ccc(OCCN3CCCC3)cc2)cc1C(=O)[O-].[Na+].[Na+]` [Example 2, 2-(3-Carboxypropoxy)-5-[3-[4-[2-(1-pyrrolidinyl)ethoxy]benzyl]benzo[b]thiophen-2-yl]benzoic Acid Disodium Salt], the melting point was above 250 °C. Also, the “VD” value in data set [1] was 0.46 L/kg.

As to `COC(=O)CCCOc1ccc(-c2sc3ccccc3c2Cc2ccc(OCCN3CCCC3)cc2)cc1C(N)=O` [Example 4, 2-(3-Carbomethoxypropoxy)-5-[3-[4-[2-(1-pyrrolidinyl)ethoxy]benzyl]benzo[b]thiophen-2-yl]benzamide Oxalate Salt], the “VD” value in data set [1] came to 3.36 L/kg.

Consider `O=C([O-])CCCOc1cc(-c2sc3ccccc3c2C(=O)c2ccc(OCCN3CCCC3=O)cc2)ccc1OCCN1CCCC1.[Li+]` [Example 11], for which the “VD” value in data set [1] was determined as 5.13 L/kg. The same measure, in the same setting: with `NC(=O)CCCOc1cc(-c2sc3ccccc3c2Cc2ccc(OCCN3CCCC3=O)cc2)ccc1OCCN1CCCC1` [Example 8, 2-[3-(4-Amino-4-oxobutoxy)-4-[2-(1-pyrrolidinyl)ethoxy]phenyl]-3-[4-[2-(2-oxopyrrolidin-1-yl)ethoxy]-benzyl]benzo[b]thiophene Oxalate] the figure was 13.53 L/kg.

In general, melting point refers to the temperature of the solid-liquid transition.
